US10543212B2, “Substituted amines for treating cardiac diseases” (Cardurion Pharmaceuticals, LLC, priority 2017, dated 2020)

Target: T1, Full-length, GST-tagged, human CaMKIIδ (Homo sapiens, UniProt Q13557)
T1 construct: Full-Length, Glutathione-S-Transferase(GST)-Tagged, Human CaMKIIδ was purchased from Carna Biosciences; purchased Carna Biosciences 02-111
Experiment: CaMKIIδ binding assay (TR-FRET with BODIPY-labeled probe ligand)
Method in brief: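 TR-FRET probe-displacement binding: 0.5 nM GST-CaMKIIδ with 10 μg/mL calmodulin, 1 mM CaCl2, 0.21 nM Tb-anti-GST Ab and 300 nM BODIPY probe in HEPES pH 7.6 buffer. Eight-point 4-fold dilutions, 1 hr at room temperature. IC50 from logistic fit; 100% inhibition defined by 3 μM parent compound.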

[1] = CaMKIIδ binding assay, results of Table 2
[2] = CaMKIIδ binding assay, activity class per Table 2
[3] = Table 2, CaMKIIδ binding assay, activity given as class A/B/C
[4] = Table 2, activity class for CaMKIIδ

T1 sequence (Q13557 1-478 isoform Q13557-12): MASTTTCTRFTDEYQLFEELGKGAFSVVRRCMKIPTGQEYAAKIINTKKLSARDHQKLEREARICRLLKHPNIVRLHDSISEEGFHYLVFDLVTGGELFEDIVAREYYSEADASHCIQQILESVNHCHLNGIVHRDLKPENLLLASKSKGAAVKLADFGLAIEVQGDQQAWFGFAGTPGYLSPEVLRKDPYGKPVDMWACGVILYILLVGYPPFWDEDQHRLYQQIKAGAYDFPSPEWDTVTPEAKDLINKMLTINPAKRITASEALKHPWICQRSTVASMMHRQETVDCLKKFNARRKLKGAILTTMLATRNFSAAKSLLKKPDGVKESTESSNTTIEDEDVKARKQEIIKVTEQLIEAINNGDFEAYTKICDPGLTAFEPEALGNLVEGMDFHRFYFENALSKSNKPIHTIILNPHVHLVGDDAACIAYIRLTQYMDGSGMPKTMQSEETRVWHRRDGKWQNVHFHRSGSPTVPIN

COc1ccc(CN2CCS(=O)(=O)CC2)cc1Nc1ncc(-c2ccc(Cl)c(O[C@@H](C)Cn3cnnn3)c2)cn1 [Example 449, (S)-4-(3-((5-(3-((1-(1H-tetrazol-1-yl)propan-2-yl)oxy)-4-chlorophenyl)pyrimidin-2-yl)amino)-4-methoxybenzyl)thiomorpholine 1,1-dioxide]
IC50 [1]: 0.01 to 0.1 µM

C[C@@H](Cn1cnnn1)Oc1cc(-c2cnc(Nc3cn(C4CCN(C)CC4)nc3C(F)(F)F)nc2)ccc1Cl [Example 487, (S)-5-(3-((1-(1H-tetrazol-1-yl)propan-2-yl)oxy)-4-chlorophenyl)-N-(1-(1-methylpiperidin-4-yl)-3-(trifluoromethyl)-1H-pyrazol-4-yl)pyrimidin-2-amine]
IC50 [1]: < 0.01 µM

C[C@@H](Cn1cnnn1)Oc1cc(-c2cnc(Nc3cn(C4CC5(C4)CN(C4COCOC4)C5)nc3OCC(F)(F)F)nc2)ccc1Cl [Example 965, (S)—N-(1-(2-(1,3-dioxan-5-yl)-2-azaspiro[3.3]heptan-6-yl)-3-(2,2,2-trifluoroethoxy)-1H-pyrazol-4-yl)-5-(3-((1-(1H-tetrazol-1-yl)propan-2-yl)oxy)-4-chlorophenyl)pyrimidin-2-amine]
IC50 [2]: < 0.01 µM

COc1ncc(N2CCN(C3CCOCC3)CC2)cc1Nc1ncc(-c2ccc(Cl)c(O[C@@H](C)Cn3cnnn3)c2)cn1 [Example 770, (S)-5-(3-((1-(1H-tetrazol-1-yl)propan-2-yl)oxy)-4-chlorophenyl)-N-(2-methoxy-5-(4-(tetrahydro-2H-pyran-4-yl)piperazin-1-yl)pyridin-3-yl)pyrimidin-2-amine]
IC50 [3]: < 0.01 µM

C[C@@H](Cn1cnnn1)Oc1cc(-c2cnc(Nc3cn(C4CCN(C5CCN(C)CC5)CC4)nc3C(F)(F)F)nc2)ccc1Cl [Example 559, (S)-5-(3-((1-(1H-tetrazol-1-yl)propan-2-yl)oxy)-4-chlorophenyl)-N-(1-(1'-methyl-[1,4'-bipiperidin]-4-yl)-3-(trifluoromethyl)-1H-pyrazol-4-yl)pyrimidin-2-amine]
IC50 [1]: < 0.01 µM

C[C@@H](Cn1cnnn1)Oc1cc(-c2cnc(Nc3cn(CC(O)CN4CCOCC4)nc3OCC(F)(F)F)nc2)ccc1Cl (stereo partly drawn) [Example 913, 1-(4-((5-(3-(((S)-1-(1H-tetrazol-1-yl)propan-2-yl)oxy)-4-chlorophenyl)pyrimidin-2-yl)amino)-3-(2,2,2-trifluoroethoxy)-1H-pyrazol-1-yl)-3-morpholinopropan-2-ol]
IC50 [2]: < 0.01 µM

C[C@@H](Cn1cnnn1)Oc1cc(-c2cnc(Nc3cn(C4CCN(Cc5ccccn5)CC4)nc3C(F)(F)F)nc2)ccc1Cl [Example 564, (S)-5-(3-((1-(1H-tetrazol-1-yl)propan-2-yl)oxy)-4-chlorophenyl)-N-(1-(1-(pyridin-2-ylmethyl)piperidin-4-yl)-3-(trifluoromethyl)-1H-pyrazol-4-yl)pyrimidin-2-amine]
IC50 [1]: < 0.01 µM

C[C@@H](Cn1cnnn1)Oc1cc(-c2cnc(Nc3cn(C4CCN(C5CCOCC5)CC4)nc3OCC(F)(F)F)nc2)ccc1F [Example 789, (S)-5-(3-((1-(1H-tetrazol-1-yl)propan-2-yl)oxy)-4-fluorophenyl)-N-(1-(1-(tetrahydro-2H-pyran-4-yl)piperidin-4-yl)-3-(2,2,2-trifluoroethoxy)-1H-pyrazol-4-yl)pyrimidin-2-amine]
IC50 [3]: < 0.01 µM

C[C@@H](Cn1cnnn1)Oc1cc(-c2cnc(Nc3cn(Cc4ccncc4)nc3C(F)(F)F)nc2)ccc1Cl [Example 709, (S)-5-(3-((1-(1H-tetrazol-1-yl)propan-2-yl)oxy)-4-chlorophenyl)-N-(1-(pyridin-4-ylmethyl)-3-(trifluoromethyl)-1H-pyrazol-4-yl)pyrimidin-2-amine]
IC50 [4]: 0.01 to 0.1 µM

COc1ccc(C(=O)N2CCCN(CCO)CC2)cc1Nc1ncc(-c2ccc(Cl)c(O[C@@H](C)Cn3cnnn3)c2)cn1 [Example 588, (S)-(3-((5-(3-((1-(1H-tetrazol-1-yl)propan-2-yl)oxy)-4-chlorophenyl)pyrimidin-2-yl)amino)-4-methoxyphenyl) (4-(2-hydroxyethyl)-1,4-diazepan-1-yl)methanone]
IC50 [4]: < 0.01 µM

Cc1cnc(N2CCC(N3CCOCC3)CC2)cc1Nc1ncc(-c2ccc(C#N)c(O[C@@H](C)Cn3cnnn3)c2)cn1 [Example 509, (S)-2-((1-(1H-tetrazol-1-yl)propan-2-yl)oxy)-4-(2-((5-methyl-2-(4-morpholinopiperidin-1-yl)pyridin-4-yl)amino)pyrimidin-5-yl)benzonitrile]
IC50 [1]: 0.01 to 0.1 µM

Cc1cc(N2CCC(N3CCOCC3)CC2)ccc1Nc1ncc(-c2ccc(Cl)c(O[C@@H](C)Cn3cnnn3)c2)cn1 [Example 453, (S)-5-(3-((1-(1H-tetrazol-1-yl)propan-2-yl)oxy)-4-chlorophenyl)-N-(2-methyl-4-(4-morpholinopiperidin-1-yl)phenyl)pyrimidin-2-amine]
IC50 [1]: < 0.01 µM

C[C@@H](Cn1cnnn1)Oc1cc(-c2cnc(Nc3snnc3-c3ccc(Cl)cc3)nc2)ccc1Cl [Example 748, (S)-N-(5-(3-((1-(1H-tetrazol-1-yl)propan-2-yl)oxy)-4-chlorophenyl)pyrimidin-2-yl)-4-(4-chlorophenyl)-1,2,3-thiadiazol-5-amine]
IC50 [3]: ≥ 0.1 µM

CCOC(=O)C(C)(C)n1cc(Nc2ncc(-c3ccc(Cl)c(O[C@@H](C)Cn4cnnn4)c3)cn2)c(OCC(F)(F)F)n1 [Example 885, ethyl (S)-2-(4-((5-(3-((1-(1H-tetrazol-1-yl)propan-2-yl)oxy)-4-chlorophenyl)pyrimidin-2-yl)amino)-3-(2,2,2-trifluoroethoxy)-1H-pyrazol-1-yl)-2-methylpropanoate]
IC50 [2]: < 0.01 µM

COc1ccc(-n2cc(Nc3ncc(-c4ccc(Cl)c(O[C@@H](C)Cn5cnnn5)c4)cn3)c(C(F)(F)F)n2)cn1 [Example 867, (S)-5-(3-((1-(1H-tetrazol-1-yl)propan-2-yl)oxy)-4-chlorophenyl)-N-(1-(6-methoxypyridin-3-yl)-3-(trifluoromethyl)-1H-pyrazol-4-yl)pyrimidin-2-amine]
IC50 [3]: ≥ 0.1 µM

C[C@@H](Cn1cnnn1)Oc1cc(-c2cnc(Nc3cn(Cc4cccnc4)nc3C(F)(F)F)nc2)ccc1Cl [Example 708, (S)-5-(3-((1-(1H-tetrazol-1-yl)propan-2-yl)oxy)-4-chlorophenyl)-N-(1-(pyridin-3-ylmethyl)-3-(trifluoromethyl)-1H-pyrazol-4-yl)pyrimidin-2-amine]
IC50 [4]: 0.01 to 0.1 µM

COc1ccc(C(=O)N2CCN(C3COC3)CC2)cc1Nc1ncc(-c2ccc(Cl)c(O[C@@H](C)Cn3cnnn3)c2)cn1 [Example 589, (S)-(3-((5-(3-((1-(1H-tetrazol-1-yl)propan-2-yl)oxy)-4-chlorophenyl)pyrimidin-2-yl)amino)-4-methoxyphenyl) (4-(oxetan-3-yl)piperazin-1-yl)methanone]
IC50 [4]: 0.01 to 0.1 µM

C[C@@H](Cn1cnnn1)Oc1cc(-c2cnc(Nc3cn([C@@H]4CCN(C5CCOCC5)C[C@H]4O)nc3C(F)(F)F)nc2)ccc1Cl (mixture of isomers) [Example 897, trans-4-(4-((5-(3-(((S)-1-(1H-tetrazol-1-yl)propan-2-yl)oxy)-4-chlorophenyl)pyrimidin-2-yl)amino)-3-(trifluoromethyl)-1H-pyrazol-1-yl)-1-(tetrahydro-2H-pyran-4-yl)piperidin-3-ol]
IC50 [2]: < 0.01 µM

C[C@@H](Cn1cnnn1)Oc1cc(-c2cnc(Nc3cc(C4CCN(C5COC5)CC4)ccc3OC(F)(F)F)nc2)ccc1Cl [Example 577, (S)-5-(3-((1-(1H-tetrazol-1-yl)propan-2-yl)oxy)-4-chlorophenyl)-N-(5-(1-(oxetan-3-yl)piperidin-4-yl)-2-(trifluoromethoxy)phenyl)pyrimidin-2-amine]
IC50 [1]: 0.01 to 0.1 µM

C[C@@H](Cn1cnnn1)Oc1cc(-c2cnc(Nc3cn([C@H]4CC[C@@H](N5CC(C)(O)C5)CC4)nc3OCC(F)(F)F)nc2)ccc1Cl [Example 801, 1-(cis-4-(4-((5-(3-(((S)-1-(1H-tetrazol-1-yl)propan-2-yl)oxy)-4-chlorophenyl)pyrimidin-2-yl)amino)-3-(2,2,2-trifluoroethoxy)-1H-pyrazol-1-yl)cyclohexyl)-3-methylazetidin-3-ol]
IC50 [3]: < 0.01 µM

C[C@@H](Cn1cnnn1)Oc1cc(-c2cnc(Nc3cn(C4CCC(=O)CC4)nc3OCC(F)F)nc2)ccc1Cl [Example 800, (S)-4-(4-((5-(3-((1-(1H-tetrazol-1-yl)propan-2-yl)oxy)-4-chlorophenyl)pyrimidin-2-yl)amino)-3-(2,2-difluoroethoxy)-1H-pyrazol-1-yl)cyclohexan-1-one]
IC50 [3]: < 0.01 µM

C[C@@H](Cn1cnnn1)Oc1cc(-c2cnc(Nc3cc(N4CCC(N5CCOCC5)CC4)ncc3OC(F)(F)F)nc2)ccc1Cl [Example 537, (S)-5-(3-((1-(1H-tetrazol-1-yl)propan-2-yl)oxy)-4-chlorophenyl)-N-(2-(4-morpholinopiperidin-1-yl)-5-(trifluoromethoxy)pyridin-4-yl)pyrimidin-2-amine]
IC50 [1]: < 0.01 µM

CC(=O)OC(C)(C)CN1CC2(CC(n3cc(Nc4ncc(-c5ccc(Cl)c(O[C@@H](C)Cn6cnnn6)c5)cn4)c(C(F)(F)F)n3)C2)C1 [Example 974, (S)-1-(6-(4-((5-(3-((1-(1H-tetrazol-1-yl)propan-2-yl)oxy)-4-chlorophenyl)pyrimidin-2-yl)amino)-3-(trifluoromethyl)-1H-pyrazol-1-yl)-2-azaspiro[3.3]heptan-2-yl)-2-methylpropan-2-yl acetate]
IC50 [2]: < 0.01 µM

C[C@@H](Cn1cnnn1)Oc1cc(-c2cnc(Nc3cn([C@H]4CC[C@H](C(=O)O)CC4)nc3C(F)(F)F)nc2)ccc1Cl [Example 626, trans-(S)-4-(4-((5-(3-((1-(1H-tetrazol-1-yl)propan-2-yl)oxy)-4-chlorophenyl)pyrimidin-2-yl)amino)-3-(trifluoromethyl)-1H-pyrazol-1-yl)cyclohexane-1-carboxylic acid]
IC50 [4]: 0.01 to 0.1 µM
